Legend:
[1] = Optimal formulation: re-solubility after storage; type: physicochemical; conditions: lyophilized, KRN7000 200 µg/ml, Polysorbate 20 0.5%
Method: (§1) First, Polysorbate 20 was dissolved in distilled water in a concentration of 0.5%, and sucrose and histidine or sodium deoxycholate in such concentrations listed on Table 11. Next, 20 mg of the active component (KRN7000) was weighed and stirred in 100 ml of the solvents in a heated bath to 80°C for 20 minutes in order to form a solution. After cooling with running water, the mixture was filtered through a 0.22 µm filter, and transparent colorless glass vials having a volume of 5 ml were charged with a 1 ml portion of each of a variety of solutions thus obtained and subjected to lyophilization. Lyophilization was carried out under the condition of preliminary freezing at -40°C for 2 hours and drying at -20°C for 24 hours, 10°C for 12 hours, and finally at 25°C for 5 hours to give the lyophilized product. The degree of vacuum was set at 0.1 Torr or less during drying step.
After the lyophilization step, the lyophilized composition thus obtained was stored at 25°C or 50°C. After storage at 25°C for 2 months or at 50°C for 2 weeks, the lyophilized composition was reconstituted in 1 ml of distilled water for injection, left standing for 30 minutes, and solubility was judged when the foams generated on reconstitution disappeared. The samples judged to be solution after storage at 25°C for 2 months were further stored, and judged again of their solubility after storage for 4 months.
The solubility was judged by cleaning the outside of the vial and placing it beneath the white light source in a darkroom for observation with naked eye at the position of a luminous intensity of about 5,000 lux. When the sample was clear with no precipitates, it was judged that the active component was dissolved.

[2] = Addition effects of sodium deoxycholate and histidine in the absence of a sugar; type: physicochemical; conditions: lyophilized, KRN7000 200 µg/ml, Polysorbate 20 0.5%, 1%, no sugar, 50°C
Method: Addition effects of sodium deoxycholate and histidine in the absence of a sugar as the excipient was examined.
as §1, with “and” for “and sucrose and”, “a concentration of 1.0%.” for “such concentrations listed on Table 11.”
After the lyophilization step, the lyophilized composition thus obtained was stored at 50°C. After storage for 3 days or 2 weeks, the lyophilized composition was reconstituted in 1 ml of distilled water for injection, left standing for 30 minutes, and solubility was judged when the foams generated on reconstitution disappeared. […]

## CCCCCCCCCCCCCCCCCCCCCCCCCC(=O)N[C@@H](CO[C@H]1O[C@H](CO)[C@H](O)[C@H](O)[C@H]1O)[C@H](O)[C@H](O)CCCCCCCCCCCCCC [KRN7000, (2S,3S,4R)-1-(α-D-galactopyranosyloxy)-2-hexacosanoylamino-3,4-octadecanediol]
[1]; Sucrose 1.1%, Histidine, 4%, 50°C, 2 weeks
  Re-solubility after storage (by naked eye): + (+ not dissolved (or deposited))
[1]; Sucrose 3.1%, Histidine, 3%, 50°C, 2 weeks
  Re-solubility after storage (by naked eye): - (- dissolved)
[1]; Sucrose 3.2%, Histidine, 2%, 50°C, 2 weeks
  Re-solubility after storage (by naked eye): - (- dissolved)
[1]; Sucrose 4.8%, Sodium deoxycholate, 0.2%, 25°C, 2 months
  Re-solubility after storage (by naked eye): + (+ not dissolved (or deposited))
[1]; Sucrose 4.8%, Sodium deoxycholate, 0.5%, 25°C, 2 months
  Re-solubility after storage (by naked eye): - (- dissolved)
[1]; Sucrose 4.8%, Sodium deoxycholate, 0.5%, 25°C, 4 months
  Re-solubility after storage (by naked eye): - (- dissolved)
[1]; Sucrose 4.8%, Sodium deoxycholate, 1%, 25°C, 2 months
  Re-solubility after storage (by naked eye): - (- dissolved)
[1]; Sucrose 4.8%, Sodium deoxycholate, 1%, 25°C, 4 months
  Re-solubility after storage (by naked eye): - (- dissolved)
[1]; Sucrose 4.8%, Sodium deoxycholate, 2%, 25°C, 2 months
  Re-solubility after storage (by naked eye): - (- dissolved)
[1]; Sucrose 4.8%, Sodium deoxycholate, 2%, 25°C, 4 months
  Re-solubility after storage (by naked eye): - (- dissolved)
[1]; Sucrose 5.0%, Histidine, 2%, 50°C, 2 weeks
  Re-solubility after storage (by naked eye): - (- dissolved)
[1]; Sucrose 5.1%, Histidine, 1%, 50°C, 2 weeks
  Re-solubility after storage (by naked eye): - (- dissolved)
[1]; Sucrose 6.9%, Histidine, 1%, 50°C, 2 weeks
  Re-solubility after storage (by naked eye): - (- dissolved)
[1]; Sucrose 7.9%, Histidine, 0.5%, 50°C, 2 weeks
  Re-solubility after storage (by naked eye): + (+ not dissolved (or deposited))
[1]; Sucrose 9.6%, Histidine, 2%, 50°C, 2 weeks
  Re-solubility after storage (by naked eye): - (- dissolved)
[1]; Sucrose 9.6%, Sodium deoxycholate, 0.2%, 25°C, 2 months
  Re-solubility after storage (by naked eye): + (+ not dissolved (or deposited))
[1]; Sucrose 9.6%, Sodium deoxycholate, 0.5%, 25°C, 2 months
  Re-solubility after storage (by naked eye): - (- dissolved)
[1]; Sucrose 9.6%, Sodium deoxycholate, 0.5%, 25°C, 4 months
  Re-solubility after storage (by naked eye): - (- dissolved)
[1]; Sucrose 9.6%, Sodium deoxycholate, 1%, 25°C, 2 months
  Re-solubility after storage (by naked eye): - (- dissolved)
[1]; Sucrose 9.6%, Sodium deoxycholate, 1%, 25°C, 4 months
  Re-solubility after storage (by naked eye): - (- dissolved)
[1]; Sucrose 9.6%, Sodium deoxycholate, 2%, 25°C, 2 months
  Re-solubility after storage (by naked eye): - (- dissolved)
[1]; Sucrose 9.6%, Sodium deoxycholate, 2%, 25°C, 4 months
  Re-solubility after storage (by naked eye): - (- dissolved)
[1]; Sucrose 19.2%, Sodium deoxycholate, 0.1%, 25°C, 2 months
  Re-solubility after storage (by naked eye): + (+ not dissolved (or deposited))
[1]; Sucrose 19.2%, Sodium deoxycholate, 0.2%, 25°C, 2 months
  Re-solubility after storage (by naked eye): + (+ not dissolved (or deposited))
[1]; Sucrose 19.2%, Sodium deoxycholate, 0.5%, 25°C, 2 months
  Re-solubility after storage (by naked eye): + (+ not dissolved (or deposited))
[1]; Sucrose 19.2%, Sodium deoxycholate, 1%, 25°C, 2 months
  Re-solubility after storage (by naked eye): + (+ not dissolved (or deposited))
[1]; Sucrose 19.2%, Sodium deoxycholate, 2%, 25°C, 2 months
  Re-solubility after storage (by naked eye): + (+ not dissolved (or deposited))
[2]; Histidine, 2 weeks
  Re-solubility after storage (by naked eye): + (+ not dissolved (or deposited))
[2]; Sodium deoxycholate, 3 days
  Re-solubility after storage (by naked eye): + (+ not dissolved (or deposited))
